From patent US20180161314A1, “Methods for Treating Hyperuricemia and Related Diseases” (Ardea Biosciences, Inc., priority 2010, published 2018)
Where “and” joins values, the source holds several entries; their conditions need not be identical. Equal values may be shown once.

Tested on: hyperuricemic subjects with symptomatic gout
Test: Pilot study of drug 1 versus placebo and open-label allopurinol in hyperuricemic subjects with symptomatic gout (Examples 1, 2, 20)
Format: in vivo, human
Procedure: Study Objectives • To compare the proportion of subjects whose sUA level is <6.0 mg/dL following 2 weeks of continuous treatment with drug 1 compared to allopurinol and placebo. • To evaluate the percent reduction from baseline in sUA levels following 2 weeks of continuous treatment with drug 1 in combination with allopurinol. • To evaluate the proportion of subjects whose sUA levels are <6.0 mg/dL, <5.0 mg/dL and <4.0 mg/dL at each visit. • To evaluate the absolute and percent reduction from baseline in sUA levels at each visit. • To evaluate the maximum percent reduction in sUA levels from baseline during the entire treatment period. • To evaluate percent change in 24-hour urine uric acid level from baseline to Day 15. • To evaluate the safety and tolerability of drug 1 in subjects with gout. • To evaluate the pharmacokinetics, safety and tolerability of drug 1 in combination with allopurinol in subjects with gout.
A randomized, double-blind, placebo-controlled, dose titration, safety and pharmacodynamics pilot study, in approximately 26 hyperuricemic subjects with symptomatic gout enrolled at 2-3 investigational sites in N America, of: • drug 1 versus placebo and open-label allopurinol (Cohort 1); and • drug 1 in combination with allopurinol versus continued allopurinol alone (Cohort 2)
Subjects are randomized 7 days prior to Day 1 in a double-blind fashion to receive drug 1, drug 1 matching placebo, or open-label allopurinol (Cohort 1) or drug 1 or drug 1 matching placebo in combination with allopurinol (Cohort 2).
To reduce the incidence of gout flares, colchicine 0.6 mg qd is administered to all subjects starting 14 days prior to the Baseline (Day 1) visit. Subjects continue colchicine administration throughout the Treatment Period, discontinuing at the End of Study visit (one week after the last dose of study medication).
Cohort 1 approx 20 subjects randomized in 2:1:1 ratio treatment groups—drug 1:placebo:allopurinol.
Subjects randomized to double-blind treatment: • approx 10 subjects randomized to receive drug 1 200 mg qd (4 drug 1 50 mg capsules/day) for one week, followed by drug 1 400 mg qd (8 drug 1 50 mg capsules/day) for one week. • 5 subjects randomized to receive drug 1 matching placebo qd for 2 weeks (week 1-4 drug 1 matching placebo capsules; week 2-8 drug 1 matching placebo capsules)
Subjects randomized to open-label treatment: • 5 subjects randomized to receive allopurinol 300 mg tablets qd for 2 weeks Cohort 2 approx 6 subjects randomized in 5:1 ratio treatment groups—drug+allopurinol:placebo+allopurinol
For Cohorts 1 and 2, subjects randomized to double-blind treatment take drug 1 or drug 1 matching placebo every 24 hours (±1 h) (morning dose) for a period of 2 weeks. For Cohort 1, subjects randomized to open-label treatment take allopurinol every 24 hours (±1 h) (morning dose) for a period of 2 weeks.
Subjects are requested to then drink approximately 240 mL of water 1-2 hours after dosing.
1. Male or post-menopausal or surgically sterile female. 2. 18-75 years of age. 3. Hyperuricemic, defined as: Cohort 1: Screening serum uric acid is ≥8 mg/dL Cohort 2: Screening serum uric acid is ≥10 mg/dL 4. Subject meets one or more of the 1977 American Rheumatism Association (ARA) criteria for the diagnosis of acute arthritis of primary gout. 5. Subject is willing and able to give informed consent and adhere to visit/protocol schedules.
Blood samples (4.5 mL) are collected and sUA levels determined at Screening (repeated as necessary prior to Day 1), Baseline (Day 1) (1 hour and 8 hours post-dose), Day 8 (trough, 1 hour and 8 hours post-dose), Day 9 (24 hours after Day 8 dose), and Day 14 (trough and 8 hours post-dose), Day 15 and End of Study. An additional sUA level is obtained on Day 7 for Cohort 2 subjects prior to the first dose of allopurinol.
Primary pharmacodynamics parameter is the proportion of subjects with serum uric acid <6.0 mg/dL following 2 weeks of treatment. […]

[1] = Cohort 1, preliminary safety summary

O=C(O)CSc1nnc(Br)n1-c1ccc(C2CC2)c2ccccc12 [Drug 1, Sodium 2-(5-bromo-4-(4-cyclopropylnaphthalen-1-yl)-4H-1,2,4-triazol-3-ylthio)acetate]
ECG findings including interval measurements [1]: No clinically significant ECG findings
Tolerability (SAEs, deaths, discontinuations due to adverse events) [1]: well tolerated in this study, with no SAEs, deaths or discontinuations due to adverse events
Responders Day 14 (those with sUA <6 mg/dL) (Cohort 1, Day 14, responders/subjects, drug 1 200 mg qd 1 week then 400 mg qd 1 week, allopurinol 300 mg qd 2 weeks): 6/10^2
sUA at Day 14 of individual patients not below 6 mg/dL (Day 14, two non-responders without baseline sUA above 11 mg/dL): 6.2 mg/dL and 6.3 mg/dL
Reduction in serum urate levels, on average (after the first week of treatment (200 mg qd)): 40%
Reduction in sUA, patient with the lowest baseline CrCl (baseline CrCl 53 ml/min): 40%
Reduction in sUA, all patients with renal impairment (by the end of week 2, mild to moderate diminished renal function): ≥ 30%
Plasma levels in gout patients (compared with Phase 1 healthy volunteer studies): generally consistent with those observed in Phase 1 healthy volunteer studies
Linear trend of sUA reduction versus creatinine clearance (day 14, 400 mg qd, Cockcroft-Gault and MDRD methods): increasing benefit with lower CrCL
Increase in serum creatinine (SCr), Grade 1 AE (two patients while on 400 mg QD, SCr fell back to normal limits after study): > 30%
